Source: paper PMC12728982, “Multichiral Half-Sandwich Ru(II) and Os(II) Anticancer Complexes Containing a Glutathione Synthesis Inhibitor” (Organometallics, 2025)

What was measured:
IGROV-1 cells = experiment: Comet assay (DNA damage in single cells); format: cell-based, human; conditions: IGROV-1, 24 h; 100 μM for Cisplatin and Os-Gly
Procedure: Comet assays were carried out to determine whether the complexes caused DNA damage in single cells. […] Cisplatin DNA-adducts have been shown previously to inhibit DNA migration through electrophoresis presenting as less tail movement. […] Excess dye was removed, and cells were re-suspended in PBS. Samples were analysed by flow cytometry using the BD FACSMelodyTM Cell Sorter (R653880001) and data analysis on FlowJoTM v10 Software (BD Life Sciences).9 2.11 Apoptosis IGROV-1 cells (1 x 106) were seeded in a 6-well plate and incubated for 24 h at 310 K. Stock solutions (200 μM) of the complexes were prepared by dissolving the compound in 5% (v/v) DMSO followed by dilution with DMEM and then diluted to desired concentrations. All complexes (50 μM and 100 μM) were added to the wells and incubated for 24 h. Cell pellets were collected using 0.25% trypsin and centrifuged (500 x g, 5 mins at 277 K). Cell pellets were washed with PBS and then stained with the commercial Apoptosis Detection Kit-FITC Annexin V and PI (BioLegend; San Diego, USA), as per manufacturer's instructions. Briefly, a staining solution of FITC Annexin V (1 unit/100 μL) diluted 1 in 100 and 1 μg/mL PI was added to the cells (30 min, room temperature). Excess dye was removed, and cells were re-suspended in PBS. Samples were analysed by flow cytometry using the BD FACSMelodyTM Cell Sorter (R653880001) and data analysis on FlowJoTM v10 Software (BD Life Sciences).9 2.12 Comet assay IGROV-1 cells (8×10^5 cells per well) were seeded into 6-well plates and incubated for 24 h. Test compounds (50 μM and 100 μM) were added to the wells and incubated at 3 10 K for 24 h. Cells were enzymatically detached using trypsin and cell concentration adjusted to 2×10^4 cells /mL in ice-cold PBS. 0.4 mL of cell suspension was added to 1.2 mL of 1% low melting point agarose in H 2O, then immediately added to microscope slides pre -coated in 1% agarose. […] Twenty comet images per sample were taken by confocal microscopy and analysed by OpenComet. […]

[1] = system: IGROV-1 human ovarian cancer cells; experiment: Cell cycle arrest by flow cytometry (PI); format: cell-based; conditions: 24 h treatment; for Progression to G2/M: IGROV-1, 50 or 100 μM
Procedure: 2 Effect of Os/Ru-LBSO and glycine complexes at 50 or 100 μM on the phases of the cell cycle of IGROV-1 human ovarian cancer cells compared with untreated (control) cells. Percentage of cells in G1 (black bar, cell growth), S (gray, DNA synthesis), G2/M, (white, growth/mitosis) as determined by flow cytometry after 24 h treatment with complexes. […] Standard deviations calculated for N = 3 *p-value <0.05 comparing to untreated sample.
(§1) 2.8 Mammalian cell culture
The human ovarian cancer cell line, IGROV-1; the human cervical cancer cell line, HeLa; the human […]; and the human non-cancerous lung fibroblast cell line, MRC5 were cultured in DMEM supplemented with 10% FBS and 100 units/mL of penicillin and 100 µg/mL of streptomycin (1x pen/strep). All cell lines were incubated at 310 K with 5% CO2 and 95% humidity for routine maintenance and during drug treatment. […]
IGROV-1 cells (1 x 10^6 cells per well) were seeded in a 6-well plate and incubated for 24 h at 310 K. Stock solutions (200 µM) of the complexes were prepared by dissolving the compound in 5% (v/v) DMSO followed by dilution with DMEM and then diluted to desired concentrations. All complexes (50 µM and 100 µM) were added to the wells and incubated for 24 h. Cell pellets were collected using 0.25% trypsin and centrifuged (500 x g, 5 mins at 4 °C). Then washed in PBS and fixed with 100% ice-cold ethanol for 20 min on ice. The ethanol […]
was aspirated, cells washed in ice-cold PBS and then stained with 0.2 mg/mL RNase, 0.05 mg/mL propidium iodide (PI) in PBS for 25 min in the dark and on ice. Excess dye was removed, and cells were re-suspended in PBS. Samples were analysed by flow cytometry using the BD

[2] = system: IGROV-1 ovarian carcinoma cells; experiment: Antiproliferative activity, SRB assay; format: cell-based, human; conditions: for IC50: IGROV-1, SRB assay, 24 h treatment, 72 h recovery
Procedure: (§2) The antiproliferative activity against human A549 lung, IGROV-1 ovarian, and HeLa cervical cancer cell lines and MRC5 normal lung fibroblasts was determined by the sulforhodamine B (SRB) assay. […] IGROV-1 is known to be cisplatin-sensitive and subject to hypermutation.
as §1
(§3) The human ovarian cancer cell line, IGROV-1; the human cervical cancer cell line, HeLa; the human […]; and the human non-cancerous lung fibroblast cell line, MRC5 were cultured in DMEM supplemented with 10% FBS and 100 units/mL of penicillin and 100 µg/mL of streptomycin (1x pen/strep). All cell lines were incubated at 310 K with 5% CO2 and 95% humidity for routine maintenance and during drug treatment.
(§4) 2.9 Sulforhodamine (SRB) cytotoxicity assay
(§5) Cells were seeded at 5 × 10^3 cells per well and incubated at 310 K for 48 h. Stock solutions (200 µM) of the complexes were prepared by dissolving the compound in 5% (v/v) DMSO followed by dilution with DMEM and serial dilutions with DMEM were prepared (0.1 µM-200 The cells were exposed to the drug for 24 h. The drug was then removed, and cells were allowed to recover for 72 h, in drug-free media. Cell viability was then determined by the SRB colorimetric assay. The solubilised dye absorbance was analysed on a microplate reader (Thermo Scientific Multiskan FC with Scanit software 4.1) at 470 nm. Data were normalized using Microsoft Excel, and dose-response curves fitted using Origin 2016. The IC50 values

[3] = system: MRC-5 normal lung fibroblasts; experiment: Antiproliferative activity, SRB assay; format: cell-based, human; conditions: for IC50: MRC-5, SRB assay, 24 h treatment, 72 h recovery
Procedure: as §2, §1, §3, §4, §5

[4] = system: A549 lung carcinoma cells; experiment: Antiproliferative activity, SRB assay; format: cell-based, human; conditions: A549; SRB assay, 24 h treatment, 72 h recovery
Procedure: as §2, §1, §3, §4, §5

[5] = system: HeLa cervical adenocarcinoma cells; experiment: Antiproliferative activity, SRB assay; format: cell-based, human; conditions: SRB assay, 24 h treatment, 72 h recovery
Procedure: as §2, §1, §3, §4
as §5, with “µM-200 µM).” for “µM-200”

[6] = system: intracellular GSH in IGROV-1 cells; experiment: Glutathione colorimetric detection assay; format: cell-based, human; conditions: IGROV-1, 50 μM, 24 h
Procedure: This lowering was not observed for Ru-LBSO which is not active in this cell line. Other papers have shown a similar result by including L-BSO as an additional agent, therefore showing L-BSO remains inhibitory.
Once the agarose had set , the slides were submerged in alkaline lysis solution (1.3 M NaCl, 100 mM Na2EDTA, 0.1% sodium lauryl sarcosinate, 0.26 M NaOH pH > 13) and incubated overnight at 277 K in the dark. The following day the slides were rinsed for 20 min three times in the electrophoresis solution ([…] NaOH, 2mM Na 2EDTA pH 12.3). The slides were then placed into the electrophoresis tank with fresh electrophoresis buffer, 1 -2 mm above the slides. Electrophoresis was run at 18.3 V for 25 min. Once electrophoresis was complete, slides were rinsed in distilled water and placed in 2.5 µg/mL PI for 20 min. After staining, cells were rinsed in distilled water to remove excess stain. Twenty comet images per sample were taken by confocal microscopy and analysed by OpenComet. 10
1 x 10^6 IGROV-1 cells were seeded in a 6-well plate and incubated for 24 h at 310 K. All complexes (50 µM and 100 µM) were added to the wells and incubated for 24 h. […]
Percentage of IGROV -1 cancer cells in non -apoptotic, apoptotic (early and late) or necrotic phases determined by flow cytometry after 24 h treatment with Os/Ru L -BSO and glycine complexes. […] Standard deviations calculated for N=3. […]

[7] = Aqueous stability / hydrolysis monitored by 1H NMR; format: physicochemical; conditions: 3:7 v/v methanol-d4:D2O, 310 K, 1H NMR

Row | IC50 [2] [µM] | IC50 [4] [µM] | IC50 [5] [µM] | Time to hydrolysis [7] [min] | Compound | Comet tails vs untreated cells (IGROV-1 cells) | Progression to G2/M [1] | IC50 [3] [µM] | G1 arrest (percentage of cells in G1) ([1]; IGROV-1, 100 μM, vs untreated) | Activity against IGROV-1 ([2]; IGROV-1, SRB) | Activity toward normal lung cells ([3]; MRC-5, SRB) | Lowering of intracellular GSH level [6]
1 | > 200 | > 200 | > 200 |  | Cc1ccc(C(C)C)cc1.O=C1C[NH][Os]([Cl])[O]1 [Os-Gly, [(p-cymene)Os(Gly)Cl]] | statistically significantly shorter comet tails | little progression to G2/M | 107 ± 2 |  |  |  | 
2 | 108 ± 8 | > 200 | > 200 | ≤ 15 | [(p-cymene)Ru(L-BSO)Cl] [Ru-LBSO] |  |  | 4.3 ± 0.7 | significantly increased | not active | some activity | not observed
3 | 20 ± 4.8 | 3 ± 0.2 |  |  | [NH2][Pt]([NH2])([Cl])[Cl] [CDDP, Cisplatin, reference compound] | statistically significantly shorter comet tails |  | 13.5 ± 0.9 |  |  |  | 
4 | > 200 | > 200 | > 200 |  | Cc1ccc(C(C)C)cc1.O=C1C[NH][Ru]([Cl])[O]1 [Ru-Gly, [(p-cymene)Ru(Gly)Cl]] |  | little progression to G2/M | 112 ± 4 |  |  |  | 
